Reference: ChEMBL document CHEMBL1151926, “Synthesis and SAR of C12-C13-oxazoline derivatives of epothilone A” (Bioorg Med Chem Lett, 2009)
pIC50: −log10 of the molar value.

Key:
[1] = Antiproliferative activity against human KB-3-1 cells after 72 hrs; type: functional, cell-based; settings: KB 3-1, 72 h
A549 = assay: Antiproliferative activity against human A549 cells after 72 hrs; type: functional, cell-based; settings: A549, 72 h
MCF7 = assay: Antiproliferative activity against human MCF7 cells after 72 hrs; type: functional, cell-based; settings: MCF7, 72 h
Tubulin (Sus scrofa) [2] = assay: Induction of porcine brain tubulin polymerization at 5 uM relative to 25 uM epothilone B
Tubulin (Sus scrofa) [3] = assay: Induction of porcine brain tubulin polymerization at 2 uM relative to 25 uM epothilone B

Compound	pIC50 (A549)	pIC50 (MCF7)	Activity (Tubulin (Sus scrofa) [2]) [%]	Activity (Tubulin (Sus scrofa) [3]) [%]	pIC50 [1]
COC1=N[C@H]2CCC[C@H](C)[C@H](O)[C@@H](C)C(=O)C(C)(C)[C@@H](O)CC(=O)O[C@H](/C(C)=C/c3csc(C)n3)C[C@@H]2O1					< 6.00
CC1=N[C@H]2CCC[C@H](C)[C@H](O)[C@@H](C)C(=O)C(C)(C)[C@@H](O)CC(=O)O[C@H](/C(C)=C/c3csc(C)n3)C[C@@H]2O1					< 6.00
C/C(=C\c1csc(C)n1)[C@@H]1C[C@@H]2OC(c3ccc(C(C)(C)C)cc3)=N[C@H]2CCC[C@H](C)[C@H](O)[C@@H](C)C(=O)C(C)(C)[C@@H](O)CC(=O)O1	< 5.00	< 5.00	7	0	
C/C(=C\c1csc(C)n1)[C@@H]1CC2O[C@@H]2CCC[C@H](C)[C@H](O)[C@@H](C)C(=O)C(C)(C)[C@@H](O)CC(=O)O1 (single isomer, unassigned) [EPOTHILONE A]	8.66	8.59	89	83	
C/C(=C\c1csc(C)n1)[C@@H]1C[C@@H]2OC(c3cccnc3)=N[C@H]2CCC[C@H](C)[C@H](O)[C@@H](C)C(=O)C(C)(C)[C@@H](O)CC(=O)O1	9.04	8.89	93	78	

Continued, in another order:

pIC50 (A549)	pIC50 (MCF7)	Activity (Tubulin (Sus scrofa) [2]) [%]	Activity (Tubulin (Sus scrofa) [3]) [%]	Compound	pIC50 [1]
7.79	7.72	80	65	C/C(=C\c1csc(C)n1)[C@@H]1C[C@@H]2OC(c3ccccc3)=N[C@H]2CCC[C@H](C)[C@H](O)[C@@H](C)C(=O)C(C)(C)[C@@H](O)CC(=O)O1	
8.54	8.72	88	71	C/C(=C\c1csc(C)n1)[C@@H]1C[C@@H]2OC(c3ccc(C)cc3)=N[C@H]2CCC[C@H](C)[C@H](O)[C@@H](C)C(=O)C(C)(C)[C@@H](O)CC(=O)O1	
5.31	5.29	15	14	C/C(=C\c1csc(C)n1)[C@@H]1C[C@@H]2OC(c3ccc(C(C)C)cc3)=N[C@H]2CCC[C@H](C)[C@H](O)[C@@H](C)C(=O)C(C)(C)[C@@H](O)CC(=O)O1	
6.42	6.53	36	32	CCc1ccc(C2=N[C@H]3CCC[C@H](C)[C@H](O)[C@@H](C)C(=O)C(C)(C)[C@@H](O)CC(=O)O[C@H](/C(C)=C/c4csc(C)n4)C[C@@H]3O2)cc1	
